The text below walks through data of patent US20260355330A1, “CELL PENETRATING PEPTIDES AND USES THEREOF” (VECTIOPEP OÜ, priority 2022, published 2026).

Entries after “also recorded” stand apart in the source; their conditions may differ. Positions of bridges follow the written chain, without caps; N, C: chain ends. Non-standard residues stand in square brackets, D forms with d. Residues, ends and D or L forms follow the SMILES beside them. Chains are numbered I, II in the order given. *: point of attachment. Stearoyl = CCCCCCCCCCCCCCCCCC(=O)*; Dab = NCC[C@H](N)C(=O)O

Assay [1] deals with liver, spleen, lung, kidney, heart and thymus of Balb/c mice. Briefly: Biodistribution of reporter levels post-transfection of mRNA or pDNA with CPPs in vivo (tissue homogenate). The following applies: for Organ distribution of mRNA delivery: mRNA cargo. The procedure:
FIG. 3: Biodistribution of reporter levels post-transfection of mRNA or pDNA with NFs or PFs CPPs in vivo. Reporter gene product levels were evaluated from the whole tissue homogenates collected post mortem. Results are shown as the fold change to mRNA or pDNA treated mice.
(§1) The transfection complexes (CPP/mRNA) were formed using 10 μg of mRNA mixed with each peptide at indicated charge ratios (CRs) in MQ water in a final volume of 100 μl. CRs were calculated theoretically and account for both the positive charges of the peptide and negative charges of the nucleic acid. The transfection complexes (CPP/mRNA and CPP/pDNA) were formed using 50 μg of mRNA mixed with each peptide at indicated charge ratios (CRs) in MQ water in a final volume of 168 μl. The complexes were incubated for 30 minutes at room temperature and then mixed with equal volume of 10% glucose (resulting in a final solution of 5% glucose in a total volume of 200 μl for 10 μg dose groups and 336 μl for 50 μg dose groups) and immediately injected intravenously via the tail vein.
The reporter gene (luciferase) expression levels were evaluated from the tissue homogenate post mortem 16-24 h after single injection.
In order to determine to which organs in vivo mRNAs may be delivered to with NickFect or PepFect CPPs, mRNA complexes with NF55, NF71 and PF14 were formed and injected through the tail vein of Balb/c mice (FIG. 3A). The organs were harvested 24 hours after the single injection and reporter signal was measured from whole tissue homogenates. The biodistribution of reporter levels was measured in liver, spleen, lung, kidney, heart and thymus.
In order to compare the biodistribution profiles between harvested organs when using either mRNA or pDNA as cargo, NF424 was used to transfect these 2 types of nucleic acids in vivo (FIG. 3B and Table 4).

Another assay concerns BALB/c mice. Description: Live animal imaging 1-48 hours post administration of NF424/mRNA or NF424/pDNA complexes. It counts as in vivo. The procedure:
FIG. 4: Live animal imaging 1-48 hours post administration of NF424/mRNA or NF424/pDNA complexes. Reporter gene product levels were evaluated with full body imager at 1 h, 6 h, 12 h, 24 h, and 48 h post-injection.
as §1
100 μl of luciferin (PerkinElmer), at a concentration of 15 mg/ml, was intraperitoneally injected into the mice. After 10 min, the mice were imaged using the In Vivo Imaging System (IVIS Lumina II, PerkinElmer).
Live animal imaging was used to track the timepoints of mRNA and pDNA transfection with NFs (FIG. 4). The CPP used was NF424, complexes were formed in parallel with mRNA or pDNA and injected through the tail vein of BALB/c mice. The reporter gene expression levels were evaluated with full body imager at 1 h, 6 h, 12 h, 24 h and 48 h post-injection.

Assay [2] deals with CHO-K1 cells. Briefly: Delivery of reporter mRNA with CPPs in cell culture (luciferase luminescence 24 h post-transfection). Format: cell-based. The following applies: for Average RLU/mg (reporter levels post-transfection of mRNA): firefly luciferase mRNA, 0.1 μg per well, charge ratio 3:1, serum containing media, 24 h, RLU normalised to total protein in lysate; for Efficiency of mRNA transfection/delivery: FIG. 1 / Table 2, cell culture. The procedure, abridged: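 CHO-K1 cells (10,000/well) transfected in 10% FBS DMEM with 0.1 μg firefly luciferase mRNA complexed with CPP at 3:1 charge ratio (peptide excess). Luminescence read in lysates 24 h later, normalised to BCA total protein (RLU/mg).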

The subject of a further assay is spleen of BALB/c mice. Briefly: In vivo delivery of mRNA with CPPs - reporter levels in the spleen. The following applies: for Reporter levels in the spleen (RLU): mRNA, tail vein injection, spleens harvested 16 hours after single injection, whole tissue homogenate. The procedure, abridged: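 CPP/mRNA complexes were formed at the indicated charge ratios in water for 30 min at room temperature, using 10 or 50 μg mRNA, then brought to 5% glucose. Complexes were injected intravenously via the tail vein into BALB/c mice. Spleens were harvested 16 h after the single injection, and luciferase (RLU) was measured in whole-tissue homogenate.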

For assay [3] the following is noted: in words; previously reported; cited from earlier work.
The conditions of assay [4]: in words; previously reported; cited from earlier work. The source holds these as a separate data set.
The subject of assay [5] is CHO-K1 cells. Briefly: Comparison of reporter levels in cells post-transfection of pDNA or mRNA delivered by CPPs. As to conditions: in words, FIG. 2. It counts as cell-based. The procedure:
FIG. 2: Comparison of reporter levels in cells post-transfection of pDNA or mRNA delivered by CPPs (P14, NF55 and NF71; relative light units normalised to total protein in the cell lysate (RLU/mg)). Naked mRNA and untreated cells (UT) were used as controls.
Adherent CHO-K1 cells were grown in Dulbecco's Modified Eagle's Medium (DMEM), which were supplemented with 0.1 mM non-essential amino acids, 1.0 mM sodium pyruvate, 100 U/ml penicillin, and […]. For complete media, 10% (final) fetal bovine serum (FBS) was added. Cells were maintained in a humidified incubator at 37 °C, 5% CO2. Cell viability and confluence was assessed daily and the cell density was reduced regularly. For cell counting, we used the CytoSMART cell counter accompanied by 0.4% trypan blue staining prior measurement. The multi-well plates with cell cultures used for experiments were incubated in a humidified incubator at 37 °C, 5% CO2.
For in vitro experiments 0.1 μg of nucleic acid (plasmid DNA (pDNA) or mRNA) was used per 96-well plate well. For CPP/NA complex formation, the diluted NA was mixed with CPP in water. Complexes were formed based on the theoretical charge ratio (CR) of positive charges from the peptide in excess to the negative charges from nucleic acid backbone, at charge ratio 3:1 with peptide in excess. […]
For reporter luminescence (expressed from firefly luciferase encoding mRNA or plasmid pDNA) assessment in adherent cell culture, 10,000 cells per 96-well plate well were seeded in 100 μl of media one day prior to transfection. […]
24 hours post-transfection, the media was aspirated, cells were washed with 1×PBS, and 30 μl of lysis buffer (0.1% Triton X100 in 1×PBS) was added. […] From the lysate, 20 μl was transferred to a black frame white well 96-well plate for luminescence measurement after addition of substrate luciferin (PerkinElmer) in buffer. The luminescence signal was detected with GloMax® 96 microplate luminometer equipped with GloMax® 1.9.2 software (Promega). […]

Where [6] appears, read: NF424 delivery of mRNA, fold change to mRNA treated mice.
[7] abbreviates: NF424 delivery of pDNA, fold change to pDNA treated mice.
[8] abbreviates: mRNA delivery, i.v. tail vein, 24 h after single injection, FIG. 3: fold change to mRNA or pDNA treated mice.

Take `CCCCCCCCCCCCCCCCCC(=O)N[C@@H](C)C(=O)NCC(=O)N[C@@H](Cc1ccc(O)cc1)C(=O)N[C@@H](CC(C)C)C(=O)N[C@@H](CC(C)C)C(=O)NCC(=O)NCC[C@H](N)C(=O)N[C@@H](CC(C)C)C(=O)N[C@@H](CCCCN)C(=O)N[C@@H](C)C(=O)N[C@@H](CC(C)C)C(=O)N[C@@H](C)C(=O)N[C@@H](C)C(=O)N[C@@H](CC(C)C)C(=O)N[C@@H](C)C(=O)N[C@@H](CCCCN)C(=O)N[C@@H](C)C(=O)N[C@H](C(=O)N[C@@H](CC(C)C)C(N)=O)[C@@H](C)CC` [NF424] (I: H-[Dab]LKALAALAKAIL-NH2 / II: Stearoyl-AGYLLG; amide I:1-II:C): in assay [1] (setting [6]), the “Fold/mRNA, Liver” value stood at 9 Fold; the “Fold/mRNA, Lung” value is recorded as 98 Fold; the “Fold/mRNA, Spleen” value is 8 330 Fold. Also, in assay [1] (setting [7]), the “Fold/pDNA, Liver” value is 2 Fold; the “Fold/pDNA, Lung” value stood at 11 Fold; the “Fold/pDNA, Spleen” value was 5 Fold. Moreover, the “Organ distribution of mRNA delivery” value in assay [1] (in words) is listed as “the highest expression levels were found in the spleen of treated mice”. Moreover, the “Organ distribution of pDNA delivery” value in assay [1] (in words, pDNA cargo) was “the main expression was found in lungs and liver”. In addition, the “Time at which reporter signal was detected in the spleens” value with BALB/c mice (NF424/mRNA complexes, 10 μg mRNA, tail vein) was at most 1 h. Moreover, the “Time at which reporter signal was visible in the lungs” value in the assay on BALB/c mice (NF424/pDNA complexes, 50 μg pDNA, tail vein) came to 6 h. Further, the “Detected signal, mRNA vs pDNA” value in the assay on BALB/c mice (in words, 10 μg mRNA vs 50 μg pDNA) is recorded as “the detected signal was much higher from mRNA”. Further, in the assay with BALB/c mice (in words, mRNA cargo), the “Main organ of mRNA delivery (live imaging)” value is reported as “delivers mRNA mostly to the spleen”. Besides, the “Main organ of pDNA delivery (live imaging)” value in the assay on BALB/c mice (in words, pDNA cargo) is “pDNA to the lungs”. Further, the “Average RLU/mg (reporter levels post-transfection of mRNA)” value (“Average RLU/mg” below) with CHO-K1 cells [2] is on record as 2 590 000 000 RLU/mg. In addition, the “Efficiency of mRNA transfection/delivery” value in the assay with CHO-K1 cells [2] (in words) was “the most efficient”. In addition, the “Delivery of mRNA compared to NF54” value in the assay with CHO-K1 cells [2] (in words, comparator NF54) is recorded as “good improvement in delivery of cargo such as mRNA over NF54”. Also, the “Delivery of mRNA compared to NF55” value in the assay with CHO-K1 cells [2] (in words, comparator NF55) is given as “significantly improved delivery of mRNA over NF55”. Besides, the “Efficacy of mRNA delivery into the spleen in vivo” value in the assay on spleen of BALB/c mice (in words, FIG. 5 / Table 5) is listed as “highest reporter levels after mRNA delivery into the spleen in vivo”. In the assay on spleen of BALB/c mice (in words, comparator NF54 and/or NF55), the “Delivery of mRNA in vivo compared to NF54 and/or NF55” value was “significantly improved delivery of mRNA in vivo over both NF54 and NF55”. Further, the “Reporter levels in the spleen (RLU)” value in the assay on spleen of BALB/c mice was 427 566 RLU.

With “NF70: SEQ ID NO: 13; HHHHYHHGO*ILLKALKALAKAIL; control/comparator construct [reference compound]”, the “Average RLU/mg” value in the assay with CHO-K1 cells [2] is listed as 919 720 RLU/mg. Besides, the “Efficiency of mRNA transfection/delivery” value in the assay on CHO-K1 cells [2] (in words) is listed as “not efficient for mRNA delivery”. Besides, the siRNA delivery efficiency entry in assay [3] is “very efficient for siRNA and miRNA delivery; also recorded: the most efficient, even more efficient than NF55”. Besides, in assay [4], the miRNA delivery efficiency entry was “very efficient for siRNA and miRNA delivery”. In addition, the “Reporter levels in the spleen (RLU)” value in the assay on spleen of BALB/c mice was 8 000 RLU.

For the compound “NF71: SEQ ID NO: 14; HHYHHGO*ILLKALKALAKAIL; control/comparator construct”, in assay [1] (in words), the “Organ distribution of mRNA delivery” value is reported as “delivered mRNA mostly into the spleen, with very low transfection levels seen in other organs”. For the same compound, in assay [1] (setting [8]), the “Reporter level, Liver” value is recorded as 8; the “Reporter level, Lung” value was found to be 6; the “Reporter level, Spleen” value is recorded as 124. The “Average RLU/mg” value with CHO-K1 cells [2] is on record as 3 505 987 RLU/mg. The “Efficiency of mRNA transfection/delivery” value in the assay with CHO-K1 cells [2] (in words) is recorded as “not efficient for mRNA delivery”. Besides, the siRNA delivery efficiency entry in assay [3] is “very efficient for siRNA and miRNA delivery; also recorded: very efficient for siRNA and miRNA transfections; also recorded: the most efficient, even more efficient than NF55”. In addition, the “Efficiency of mRNA transfection (parallel pDNA/mRNA comparison)” value in the assay with CHO-K1 cells [5] (mRNA cargo) is “not effective tools for mRNA transfection/delivery; also recorded: not an efficient delivery vector for mRNA”. Further, in the assay on CHO-K1 cells [5] (pDNA cargo), the “Efficiency of pDNA transfection (parallel pDNA/mRNA comparison)” value was “very efficient transfection reagents for pDNA delivery”. Besides, the miRNA delivery efficiency result in assay [4] was “very efficient for siRNA and miRNA delivery; also recorded: very efficient for siRNA and miRNA transfections; also recorded: the most efficient in vivo”.
